Experimental data taken from patent US9682114B2, “Plant extracts of Ptaeroxylon obliquum nand compounds having antimicrobial and antihelminthic activity” (UNIVERSITY OF PRETORIA, priority 2013, dated 2017).

Key:
[1] = system: Vero monkey kidney cells
[2] = system: human liver (C3A) cells

CC(=O)OCC1=CCc2c(cc(O)c3c(=O)cc(C)oc23)OC1 [Compound 2, 8,11-Dihydro-5-hydroxy-12-hydroxymethyl-2-methyl-4H-pyrano[2,3-g][1]benzoxepin-4-one 12-O-acetate]
Cytotoxicity LC50 [1]: > 200 µg/mL
Cytotoxicity LC50 [2]: > 200 µg/mL
